From patent EP2435019B1, “DODECA-2E,4E-DIENE AMIDES AND THEIR USE AS MEDICAMENTS AND COSMETICS” (Dr. August Wolff GmbH & Co. KG Arzneimittel, priority 2009, dated 2010)
Where two headings read alike, the source gives them in different places.

Experiments:
CB1 [1] = molecular target: T1, CB1 (Homo sapiens, UniProt P21554); assay: Radioligand displacement assay on CB1 receptor; assay type: binding
T1 construct: purchased Perkin Elmer RBHCB1M
Protocol: (§1) For the CB1 receptor, binding experiments were performed in the presence of 0.39 nM of the radioligand [^3H]CP55,940 (168 Ci/mmol) (Perkin Elmer, Waltham, MA, US) at 30°C in siliconized glass vials together with 7.16 µg of membrane recombinantly over-expressing CB1 (No. RBHCB1M, Perkin Elmer, Waltham, MA, US), which was resuspended in 0.2 mL (final volume) binding-buffer (50 mM TRIS-HCl, 2.5 mM EGTA, 5 mM MgCl2, 0.5 mg/mL fatty acid free BSA, pH 7.4). Test compounds were present at varying concentrations and the nonspecific binding of the radioligand was determined in the presence of 10 µM CP55,940 (Tocris Cookson Ltd., Bristol, UK). After 1.5 h incubation, the suspension was rapidly filtered through 0.05% polyethylenimine pre-soaked GF/C glass fiber filters on a 96-well cell harvester and washed nine times with 0.5 mL ice-cold washing-buffer (50 mM TRIS-HCl, 2.5 mM EGTA, 5 mM MgCl2, 2% BSA, pH 7.4). Radioactivity on filters was measured with a Beckman LS 6500 scintillation counter in 3 mL Ultima Gold scintillation liquid (Perkin Elmer, Waltham, MA, US). Data collected from three independent experiments performed in triplicates were normalized between 100% and 0% specific binding for [^3H]CP55,940. […] Derived from the dissociation constant (KD) of [^3H]CP55,940 and the concentration-dependent displacement (IC50 value), inhibition constants (Ki) of competitor compounds were calculated using the Cheng-Prusoff equation [Ki = IC50/(1+ L/KD)].

[2] = Critical micelle concentration (CMC) measurement, dye micellization; assay type: physicochemical; details: fluorescein dye micellization in water, pH 6.9, room temperature
Protocol: Dye micellization was carried out with a modified version of the method described by Eliyahu et al., Novel dextran-spermine conjugates as transfecting agents: comparing water-soluble and micellar polymers. […] Experiments were carried out on 96-well microtiter plates (excitation at 485 nm, emission at 535 nm). Since the emission of fluorescein is pH-dependent, the pH of the mixture was kept constant at 6.9. The CMC range was determined as the concentration range where the first statistically significant increase in fluorescence was detected.

FAAH [3] = molecular target: T2, FAAH (Sus scrofa, UniProt Q9TUI8); assay: Fatty acid amide hydrolase (FAAH) inhibition, pig brain homogenate (assay D); assay type: biochemical; details: 1 µM; pig brain homogenate (assay D)
T2 construct: 165 µl of diluted pig brain homogenate; from tissue; host or cells: pig brain homogenate
T2 sequence (Q9TUI8 1-579): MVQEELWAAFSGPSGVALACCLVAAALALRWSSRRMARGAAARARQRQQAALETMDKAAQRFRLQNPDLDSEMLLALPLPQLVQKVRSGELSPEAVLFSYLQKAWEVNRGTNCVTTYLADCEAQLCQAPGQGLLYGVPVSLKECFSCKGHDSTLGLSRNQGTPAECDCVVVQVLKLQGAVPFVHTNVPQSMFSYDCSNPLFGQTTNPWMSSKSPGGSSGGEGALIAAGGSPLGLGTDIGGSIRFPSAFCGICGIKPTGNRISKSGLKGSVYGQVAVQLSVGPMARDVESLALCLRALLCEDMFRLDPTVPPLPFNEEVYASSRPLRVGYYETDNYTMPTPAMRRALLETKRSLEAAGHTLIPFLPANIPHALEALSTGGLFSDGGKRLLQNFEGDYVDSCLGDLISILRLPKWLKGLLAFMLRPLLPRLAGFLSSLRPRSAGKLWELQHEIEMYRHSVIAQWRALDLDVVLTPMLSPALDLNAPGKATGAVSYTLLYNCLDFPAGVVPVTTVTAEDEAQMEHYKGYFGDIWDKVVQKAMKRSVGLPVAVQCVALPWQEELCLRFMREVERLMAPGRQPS
Protocol: FAAH activity was assessed using pig brain homogenate according to the method described by Omeir et al., Arachidonoyl ethanolamide-[1,2-14C] as a substrate for anandamide amidase. Life Sci. 1995;56(23-24):1999-2005, and adapted by Fowler et al., Ibuprofen inhibits rat brain deamidation of anandamide at pharmacologically relevant concentrations. Mode of inhibition and structure-activity relationship. J Pharmacol Exp Ther. 1997 Nov;283(2):729-34. Briefly, 10 µl of test compounds at the adequate concentration or solvent were incubated at 37°C for 20 min with 165 µl of diluted pig brain homogenate in 10 mM Tris-HCl and 1 mM EDTA, pH 7.6 (corresponding to 100 µg/ml of total protein), 1% w/v fatty acid free BSA (Sigma, San Louis, MO, US) and 25 µl of a mixture 1:1 of nonradioactive AEA [^3H]-AEA (60 Ci mmol^-1) (concentration in the assay was 2 µM). Successively, 400 µl of a mixture 1:1 (v/v) of methanol:chloroform was added at each sample and, after vigorous vortexing, aqueous and organic phases were separated by centrifugation at 10000 rpm for 10 min. The radioactivity associated to the [^3H]-ethanolamine (produced by FAAH-catalysed breakdown of [^3H]-AEA) was measured upon addition of 3 ml of Ultima Gold scintillation liquid (Perkin Elmer, Waltham, MA, US) to 200 µl of the aqueous (upper) phase, using a Beckman LS6500 scintillation counter. Results were expressed as % of FAAH activity vs. pig brain homogenate treated only with solvent.

[4] = test system: Arachidonoylethanolamide Transport (AEAT); assay: Cellular uptake of [3H]-AEA in U937 cells (assay C); assay type: cell-based; details: Homo sapiens, U-937; [3H]-AEA uptake, assay C (Tables 2 and 3)
CB2 [5] = molecular target: T3, CB2 (Homo sapiens, UniProt P34972); details: read-out: affinity towards CB2 receptors, Ki; Gertsch, Planta Med. 2008; cited from earlier work
T3 sequence (P34972 whole entry): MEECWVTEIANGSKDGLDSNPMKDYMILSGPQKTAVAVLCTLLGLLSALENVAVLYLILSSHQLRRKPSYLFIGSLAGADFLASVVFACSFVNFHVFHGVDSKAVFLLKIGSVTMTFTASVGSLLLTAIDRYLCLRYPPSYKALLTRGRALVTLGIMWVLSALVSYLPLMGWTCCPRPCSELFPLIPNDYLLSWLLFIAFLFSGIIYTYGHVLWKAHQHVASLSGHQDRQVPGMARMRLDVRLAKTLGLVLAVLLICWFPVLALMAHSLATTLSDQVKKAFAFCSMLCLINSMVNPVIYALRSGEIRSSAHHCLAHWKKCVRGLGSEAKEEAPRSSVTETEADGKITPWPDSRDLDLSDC

CB2 receptors = details: Woelkart, Planta Med. 2005; cited from earlier work
CB1 [6] = molecular target: CB1 (Rattus norvegicus, UniProt P20272); details: Woelkart, Planta Med. 2005; cited from earlier work
CB1 (Rattus norvegicus, UniProt P20272), sequence (P20272 whole entry): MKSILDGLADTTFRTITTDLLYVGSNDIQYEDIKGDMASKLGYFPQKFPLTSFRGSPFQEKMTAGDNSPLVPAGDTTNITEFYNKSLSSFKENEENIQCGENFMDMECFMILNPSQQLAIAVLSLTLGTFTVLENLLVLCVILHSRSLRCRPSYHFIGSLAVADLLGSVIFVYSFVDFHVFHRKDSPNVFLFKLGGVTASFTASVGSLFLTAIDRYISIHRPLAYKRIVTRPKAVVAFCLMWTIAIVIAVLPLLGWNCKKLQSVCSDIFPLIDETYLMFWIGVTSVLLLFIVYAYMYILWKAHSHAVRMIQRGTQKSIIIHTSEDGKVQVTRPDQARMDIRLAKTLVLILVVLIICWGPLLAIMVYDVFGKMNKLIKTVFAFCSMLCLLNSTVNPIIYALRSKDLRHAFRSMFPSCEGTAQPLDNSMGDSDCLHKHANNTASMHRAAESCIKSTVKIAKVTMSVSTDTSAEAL

FAAH [7] = details: cited from earlier work
PGE2 production = details: at 50 µM; LaLone 2007; cited from earlier work
[8] = test system: RAW264.7 mouse macrophage cells; details: at 50 µM; LaLone 2007; cited from earlier work
[9] = at 50 µM; Chen 2005; cited from earlier work
CB2 [10] = molecular target: T3, CB2; assay: Radioligand displacement assay on CB2 receptor; assay type: binding; design: purchased Perkin Elmer RBXCB2M
Protocol: as §1
For CB2-receptor binding studies 3.8 µg of membrane recombinantly over-expressing CB2 (No. RBXCB2M, Perkin Elmer, Waltham, MA, US) were resuspended in 0.6 mL binding buffer (see above) together with 0.11 nM of the radioligand [^3H]CP55,940. The CB2-binding assay was conducted in the same manner as for CB1.

[11] = test system: Arachidonoylethanolamide Transport (AEAT); assay: Cellular uptake of [3H]-AEA in U937 cells (assay C); assay type: cell-based, Human; details: Figure 1(b); mean ± SEM of 3 independent experiments; read-out: EC50 value, AEA re-uptake inhibition
Protocol: 5x10^5 cells were collected and suspended in 500 µL of sterile PBS (Sigma, San Louis, MO, US) using glass silanized tubes. Cells were pre-incubated 10 min at 37°C in presence of test compounds in a concentration range of 10^-8 - 10^-4 M or in presence of the same amount of solvent (control). Then a mixture of 50 nM [^3H]-AEA (60 Ci/mmol) (American Radiolabeled Chemicals, Inc., San Louis, MO, US) and 50 nM of nonradioactive AEA (Tocris Cookson Ltd., Bristol, UK) was added and samples were incubated at 37°C for different times in the range of 1-60 min. The reaction was stopped by rapid filtration over Whatman GF/C filters pre-soaked in 0,25 % BSA. […] The filters-bound radioactivity was measured using a Beckman LS6500 scintillation counter. Results were expressed as % of AEA uptake versus cells treated with solvent and the EC50 and IC50 values were calculated from the sigmoidal curves, which were generated using the GraphPad Prism (GraphPad Software, San Diego, CA, US).

[3H]-AEA uptake = Cellular uptake of [3H]-AEA in human primary monocytes (assay C); assay type: cell-based; details: Figure 1(a), 1 µM
Protocol: • Figure 1: AEA re-uptake inhibition of 2E,4E-dieneamides 1 and 9 into human primary monocytes and U937 cells. […] Data are mean values ± SEM of 3 independent experiments in a sigmoidal dose-response curve. • Figure 2: Concentration-dependent effects of 4 and 5 on FAAH activity. […] The maximal inhibition (32%) of 5 was measured at 1 µM. Data are mean values ± SEM of 3 independent experiments. • Figure 3: Effects of low nM concentrations of N-alkylamide 7 on FAAH activity alone and in combination with the FAAH inhibitor URB597. […] Data are mean values ± SEM of 3 independent experiments. • Figure 4: 1 and 9 inhibit LPS-induced TNF-alpha release into culture medium (measured by ELISA). Human macrophages (10^6 cells) were stimulated with LPS (500 ng/ml) and treated with UCM707 and/or compounds 1 and 9 at 5 µM for 18 h. N = 3 ± SEM. • Figure 5: UCM707 (positive control) and compounds 1 and 9 diminish NO2^- production. Human macrophages (10^6 cells) were stimulated with LPS (500 ng/ml) and treated with UCM707 and/or compounds 1 and 9 at 5 µM for 18 h. Culture supernatants were assayed for nitrite levels, using the Griess reagent as a reflection of NO production. […]
Human lymphoma U937 cells were grown in RPMI 1640 medium (Invitrogen, Basel, Switzerland) supplemented with 10% fetal bovine serum, […] fungizone (amphotericin B), 100 units/ml penicillin, 100 µg/ml streptomycin, and 2 mM L-glutamine (all from Invitrogen) and selected for the cellular AEA uptake assay. […] The filters-bound radioactivity was measured using a Beckman LS6500 scintillation counter. Results were expressed as % of AEA uptake versus cells treated with solvent and the EC50 and IC50 values were calculated from the sigmoidal curves, which were generated using the GraphPad Prism (GraphPad Software, San Diego, CA, US).

NO2^- production = assay: NO2- production in LPS-stimulated human macrophages (Griess reagent); assay type: cell-based; details: Figure 5; LPS 500 ng/ml; 5 µM for 18 h
Protocol: (§2) • Figure 1: AEA re-uptake inhibition of 2E,4E-dieneamides 1 and 9 into human primary monocytes and U937 cells. […] Data are mean values ± SEM of 3 independent experiments in a sigmoidal dose-response curve. • Figure 2: Concentration-dependent effects of 4 and 5 on FAAH activity. […] The maximal inhibition (32%) of 5 was measured at 1 µM. Data are mean values ± SEM of 3 independent experiments. • Figure 3: Effects of low nM concentrations of N-alkylamide 7 on FAAH activity alone and in combination with the FAAH inhibitor URB597. […] Data are mean values ± SEM of 3 independent experiments. • Figure 4: 1 and 9 inhibit LPS-induced TNF-alpha release into culture medium (measured by ELISA). Human macrophages (10^6 cells) were stimulated with LPS (500 ng/ml) and treated with UCM707 and/or compounds 1 and 9 at 5 µM for 18 h. N = 3 ± SEM. • Figure 5: UCM707 (positive control) and compounds 1 and 9 diminish NO2^- production. Human macrophages (10^6 cells) were stimulated with LPS (500 ng/ml) and treated with UCM707 and/or compounds 1 and 9 at 5 µM for 18 h. Culture supernatants were assayed for nitrite levels, using the Griess reagent as a reflection of NO production. Results are the mean ± SEM of four independent experiments performed in duplicate • Figure 6: In CB receptor expressing human HaCaT keratinocytes (10^6 cells) UCM707 (control) 1 and 9 like the endocannabinoid anandamide (each 5 µM) inhibited tolerogen (10 µg/ml) induced chemokine IL-8 (6h stimulation and incubation). N = 3 ± SEM.

IL-8 = assay: Induced chemokine IL-8 in HaCaT keratinocytes; assay type: cell-based, human; details: Figure 6, 5 µM, tolerogen 10 µg/ml, 6h
Protocol: as §2

T1 sequence (P21554 whole entry): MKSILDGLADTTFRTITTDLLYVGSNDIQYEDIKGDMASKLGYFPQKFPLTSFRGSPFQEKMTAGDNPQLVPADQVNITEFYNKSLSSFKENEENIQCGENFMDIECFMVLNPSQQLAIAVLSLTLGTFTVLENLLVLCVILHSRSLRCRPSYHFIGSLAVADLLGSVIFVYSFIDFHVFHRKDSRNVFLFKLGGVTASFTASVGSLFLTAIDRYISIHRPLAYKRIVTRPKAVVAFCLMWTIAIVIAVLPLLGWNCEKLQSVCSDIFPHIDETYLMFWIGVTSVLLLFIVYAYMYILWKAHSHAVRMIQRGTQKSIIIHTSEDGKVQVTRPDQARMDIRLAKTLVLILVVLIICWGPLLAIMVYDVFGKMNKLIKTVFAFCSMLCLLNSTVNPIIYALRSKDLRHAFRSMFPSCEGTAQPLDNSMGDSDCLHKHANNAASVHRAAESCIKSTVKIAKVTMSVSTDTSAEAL

Compound | Ki (CB1 [1]; displacement of 0.39 nM [3H]CP55,940, membrane recombinantly over-expressing CB1, read-out: Receptor affinity Ki CB1) [nM] | affinity towards CB1 (in words) (CB1 [1]; summary of Table 3) | CMC [2] [µM] | FAAH inhibition at 1 µM (FAAH [3]) | EC50 [4] [nM] | Ki (CB2 [5]) [nM] | affinity to CB2 receptor (CB2 receptors) | affinity to CB1 receptor (CB1 [6]) | inhibition of FAAH (FAAH [7]; Gertsch, Planta Med. 2008) | inhibition of FAAH (FAAH [7]; Woelkart, Planta Med. 2005) | PGE2 production (PGE2 production) | cytotoxicity [8] | cell death [9] [%] | Ki (CB2 [10]; displacement of 0.11 nM [3H]CP55,940, membrane recombinantly over-expressing CB2, read-out: Receptor affinity Ki CB2) [nM] | affinity towards CB2 (in words) (CB2 [10]; summary of Table 3) | EC50 [11] [nM] | [3H]-AEA uptake inhibition ([3H]-AEA uptake) | NO2^- production (NO2^- production) | tolerogen induced chemokine IL-8 (IL-8)
CCCCCCC/C=C/C=C/C(=O)NCC(C)C [Compound A, (2E,4E)-N-isobutyldodeca-2,4-diene amide] | 1940 ± 213 | moderate affinity | <0.5 | <10 % of control | > 10000 | < 100 | single digit micromolar range | single digit micromolar range | did not inhibit | very weak inhibitor | inhibiting | No significant cytotoxicity | 50 | 60 ± 7 | high affinity |  |  |  | 
CCCCC/C=C\C/C=C\C/C=C\C/C=C\CCCC(=O)NCc1ccoc1 [UCM707, reference compound] |  |  |  |  |  |  |  |  |  |  |  |  |  |  |  | 1420 ± 296 | clearly less active | diminish | inhibited
